According to patent publication US20050096360A1, “Inhibitors of semicarbazide-sensitive amine oxidase (SSAO) and VAP-1 mediated adhesion useful for treatment of diseases” (priority 2003, published 2005):
Where a name gives a salt, the structure may show the parent alone.

Tests used:
[1] = system: adhesion of human PBMCs to rat HEC transfected with full-length human SSAO/VAP-1; experiment: In vitro adhesion of PBMCs to SSAO/VAP-1-transfected high endothelial cells; assay type: cell-based; conditions: inhibitors at IC100 concentrations, antibody 10 μg/ml; 3 hr at 37° C.
Experimental: The studies in this Example were carried out in order to determine whether SSAO/VAP-1 transfected into endothelial cells retained the adhesion function and whether it played any role in the adhesion of freshly isolated human PBMCs to these cells. Moreover, the studies were also designed to determine whether blocking of SSAO/VAP-1 would have an impact on the level of adhesion between these two cell types. Adhesion assays were performed using cells labeled with the fluorescent dye Calcein-AM (Molecular Probes, OR, USA) as per the manufacturer's instructions. Briefly, rat lymph node high endothelial cells (HEC; isolation and culture was described in Ager, A. (1987) J. Cell Sci. 87: 133) were plated overnight in 96-well plates (2,000 cells/well). PBMCs (peripheral blood mononuclear cells) (1×10^7) were labeled with 1 ml of 10 μM Calcein-AM for 1 hr at 37° C., washed three times with RPMI, and added to the 96 well plates containing monolayers of HEC cells mock-transfected or transfected with full-length human SSAO/VAP-1 (60,000 PBMCs were plated per well containing 2,000 HEC cells). Adhesion was carried out for 3 hr at 37° C. Non-adherent cells were removed by washing three times with RPMI and fluorescence was measured in a fluorescence plate reader at an excitation wavelength of 485 nm and emission wavelength of 530 nm. Several controls were included, such as HEC cells and PBMCs (labeled and unlabeled) alone.
These studies were repeated using the adhesion assay as described above to evaluate the inhibitors of the invention. Adhesion blockers used included an anti-human VAP-1 monoclonal antibody (Serotec, Oxford, UK), neuramidase (a sialidase, because SSAO/VAP-1 is a sialoglycoprotein; Sigma), and several function-blocking antibodies to rat adhesion molecules (CD31-PECAM, CD54-ICAM-1, […]-P Selectin). […] Antibodies (10 μg/ml) and neuramidase (5 mU) were incubated with the HECs for 30 min at 37° C.; excess antibody was washed away prior to the addition of the labeled PBMCs. Small-molecule inhibitors were pre-incubated the same way at IC100 concentrations, but the amounts present in the supernatant were not washed away to preserve the IC100 concentration during the adhesion step.

[2] = in vivo
[3] = molecular target: T1, recombinant human MAO-B (Homo sapiens, UniProt P27338); experiment: Inhibition of MAO-B activity, colorimetric; assay type: biochemical; conditions: for Specificity for SSAO vs. MAO-B: ratio IC50 MAO-B to IC50 SSAO
T1 construct: purchased BD Biosciences (MA, USA)
T1 sequence (P27338 1-520): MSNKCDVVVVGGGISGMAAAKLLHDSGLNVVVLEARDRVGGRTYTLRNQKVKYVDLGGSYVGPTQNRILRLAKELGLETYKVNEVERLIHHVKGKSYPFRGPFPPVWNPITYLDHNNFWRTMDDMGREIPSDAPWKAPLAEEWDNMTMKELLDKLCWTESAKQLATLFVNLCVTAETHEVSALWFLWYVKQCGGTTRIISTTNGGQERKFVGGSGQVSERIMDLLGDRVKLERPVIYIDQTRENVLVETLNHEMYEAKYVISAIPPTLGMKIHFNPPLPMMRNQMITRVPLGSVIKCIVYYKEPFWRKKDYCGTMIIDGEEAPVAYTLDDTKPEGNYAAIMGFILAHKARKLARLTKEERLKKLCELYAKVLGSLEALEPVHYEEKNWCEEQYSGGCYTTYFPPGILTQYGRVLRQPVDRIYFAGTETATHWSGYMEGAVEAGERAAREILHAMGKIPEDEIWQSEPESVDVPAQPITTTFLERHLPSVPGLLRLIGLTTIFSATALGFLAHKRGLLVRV
Experimental: The specificity of the different SSAO inhibitors was tested by determining their ability to inhibit MAO-A and MAO-B activities in vitro. Recombinant human MAO-A and human MAO-B enzymes were obtained from BD Biosciences (MA, USA). […] A pre-determined amount of inhibitor diluted in 0.2 M potassium phosphate buffer, pH 7.6, was added to each well, if required. […] Controls lacked inhibitor. The following agents were then added to a final reaction volume of 200 μl in 0.2 M potassium phosphate buffer, pH 7.6: 0.04 mg/ml of MAO-A or 0.07 mg/ml MAO-B enzyme, 15 μl of 10 mM tyramine substrate (for MAO-A), or 15 μl 100 mM benzylamine substrate (for MAO-B), and 50 μl of freshly made chromogenic solution (as above). The plates were incubated for 60 min at 37° C. The increase in absorbance, reflecting MAO activity, was measured at 490 nm using microplate spectrophotometer (Power Wave 40, Bio-Tek Inst.). Inhibition was presented as percent inhibition compared to control after correcting for background absorbance and IC50 values calculated using GraphPad Prism software.

[4] = system: carrageenan-induced paw edema in Sprague Dawley rats; experiment: Carrageenan-induced rat paw edema; assay type: in vivo; conditions: for paw swelling: 100 mg/kg i.p. 15 minutes prior to carrageenan, 60, 120, 180 min, p<0.05
Experimental: Female Sprague Dawley rats were used and compounds of the invention were injected i.p. at 100 mg/kg 15 minutes prior to carrageenan exposure. The control group was injected with an equal volume of vehicle (PBS). Edema in the paws was induced as previously described by injecting 50 μl of a 0.5% solution of carrageenan (Type IV Lambda, Sigma) in saline with a 27-G needle s.c. in the right foot pat. (See Whiteley P. E. and Dalrymple S. A. (1998) Models of inflammation: carrageenan-induced paw edema in the rat, in Current Protocols in Pharmacology. Enna S J, Williams M, Ferkany J W, Kenaki T, Porsolt R E and Sullivan J P, eds., pp 5.4.1-5.4.3, John Wiley & Sons, New York) The size of the tested foot of each animal was measured volumetrically, before induction of edema, and at 60, 120, and 180 min after carrageenan induction.
Briefly, SSAO inhibitors (30 mg/kg), indomethacin (3 mg/kg) and PBS were administered orally to rats 1 hour after carrageenan injections.
To investigate further the role of SSAO inhibition in the inflammatory response, studies were carried out to assess the effect of SSAO inhibition on prostaglandin E2 (PGE2) levels. Animals were divided into four therapeutic groups of eight rats each. […] The fourth group received 3 mg/kg of dexamethasone, i.p. 1 hour before paw inflammation. Three hours after carrageenan injection, rats were asphyxiated with CO2 and their hind paws removed. The paws were lacerated with a scalpel, suspended off the bottom of a polypropylene 1.5 ml tube with a micropipette tip and centrifuged to express the inflammatory fluid. The volume collected from each paw was determined and the fluid was analyzed by ELISA for PGE2 production using a commercial kit (R&D Systems, Minneapolis, Minn.) according to the manufacturer's instructions. […] Data were analyzed with GraphPad Prism software (San Diego, Calif.) by Dunnett's test following analysis of variance.

SMILES	number of PBMCs adherent to SSAO/VAP-1 transfected HECs [1]	bioavailability after intravenous and intraperitoneal administration [2]	IC50 [3] [µM]	Specificity for SSAO vs. MAO-B [3]	PGE2 production in paw exudate ([4]; 50 mg/kg oral 1 hour prior to carrageenan, 3 hours after injection, equivalent to dexamethasone)	paw volume ([4]; 50 mg/kg oral 1 hour prior to carrageenan, FIG. 11A)	paw swelling [4]
C=C(CNN)c1ccccc1 [Example 2, Hydrochloride]	reduced	readily bioavailable	100	2,900	significantly reduce	reduces	clearly and significantly reduced
C=C(CNN)c1ccc(F)cc1.Cl [Example 8, N-[2-(4′-fluorophenyl)-allyl]-hydrazine Hydrochloride]	reduced	readily bioavailable	81	2,500			clearly and significantly reduced
Cl.NNC/C(=C/F)c1ccccc1 [Example 10, (E)-1-fluoro-2-phenyl-3-hydrazinopropene Hydrochloride]		readily bioavailable	0.65	10			
